From patent publication US4816464A, “10-Substituted benzo[b][1,6]naphthyridines as inhibitors of interleukin 1” (American Home Products Corporation, priority 1987, dated 1989)

Legend:
[1] = system: IL 1-induced release of neutral protease from rabbit articular chondrocytes; experiment: inhibition of IL 1-induced release of neutral protease from rabbit articular chondrocytes (azocoll assay); format: cell-based, rabbit (New Zealand White); settings: Oryctolagus cuniculus, Chondrocyte, compound added 10 min before human IL 1, 24 h stimulation, read-out: % Inhibition (I.S.D.)
Protocol: The ability of the compounds of the inventions to inhibit interleukin 1 is measured by the ability of the test compounds to inhibit the IL 1-induced release of neutral protease from rabbit articular chondrocytes.
Male New Zealand White rabbits are anesthetized with 50 mg/kg of ketamine (i.m.) and killed by an intracardiac injection of 3 mls. of Nembutal. The knee joints of both legs are resected and the articular surfaces are exposed. Cartilage slices are obtained using a scalpel and are placed in a tissue culture dish (100 mm diameter) containing 10 mls of Hank's balanced salt solution (HBSS). The chondrocytes within the cartilage slices are then liberated by a series of enzyme digestions. The slices are incubated for 10 min. at 37° C. in 0.05% hyaluronidase (Sigma H-3884), rinsed with HBSS and incubated with 0.2% trypsin (Sigma T-2395) for 10 min. at 37° C. The slices are rinsed again and incubated for 10 mins. at 37° C. with 1.2% collagenase (Sigma C-5138). The slices are then rinsed again with HBSS and resuspended in 10 ml of Ham's F-12 medium containing 10% fetal bovine calf serum (FCS) and 0.2% collagenase and incubated overnight at 37° C. in a 5% CO2 incubator. The next day, the medium containing the digested cartilage fragments and liberated chondrocytes is transferred to a 15 ml centrifuge tube and the cells are collected by centrifugation and washed twice and resuspended in Ham's F-12 medium. The cells are then plated into 24-well tissue culture plates (2×10^5 cells/well) and incubated at 37° C. until confluent (usually 4-6 days).
The confluent chondrocytes are rinsed twice with serum-free Ham's F-12 medium and 1 ml is added to each well. Fifty μl of purified human IL 1 (100 Units/ml; Genzyme Corporation, Boston, MA) is then added to stimulate these cells to secrete neutral protease. To measure drug effects, the cells are treated with test compound 10 min. prior to addition of IL 1. The standard screening dose is 10 μM. Twenty-four hours after IL 1 stimulation, supernatant fluids are collected and assayed for neutral protease activity.
The neutral protease activity of chondrocyte supernatant fluids is determined by their ability to degrade an insoluble protease substrate, azocoll (Sigma). Supernatants are treated for 10 min. at room temperature with 350 μM p-aminophenylmurcuric acetate to activate the latent enzyme. Three hundred μl of supernatant is then mixed with 500 μl of a 20 mg/ml suspension of azocoll and incubated at 37° C. for 18-24 hrs. with gentle rocking. The mixtures are centrifuged and the amount of substrate hyrolyzed is determined by measuring the absorbance of the supernatant at 520 nm.
Drug effects are calculated as the % change in enzyme activity (absorbance)by supernatants from drug-treated chondrocytes relative to enzyme activity of supernatants from vehicle-treated chondrocytes as follows: [formula]

carrageenan paw edema = experiment: rat carrageenan paw edema assay; format: in vivo, rat (Sprague-Dawley); settings: for % Change: 1 hour prior to carrageenan, edema at 3 hours; for ED50: Rattus norvegicus, po, 3 h, read-out: Oral ED50 (95% C.L.)
Protocol: The compounds of the invention are tested in the rat carrageenan paw edema assay to determined their ability to inhibit the acute inflammatory response. 140-180 gm male Sprague-Dawley rats, in groups of 6 animals, are injected subcutaneously in the right paw with 0.1 ml of 1% carrageenan at zero time. Mercury plethysmographic readings (ml) of the paw are made at zero time and 3 hours later. Test compounds are suspended or dissolved in 0.5% methylcellulose and given perorally 1 hour prior to carrageenan administration. The increase in paw volume (edema in ml.) produced by the carrageenan is measured. Paw edema is calculated (3 hour volume minus zero time volume), and percent inhibit of edema is determined. Unpaired Student's t-test is used to determine statistical significance.

SMILES | inhibition at 10 µM [1] | other results
CCCCCCCCN1CCc2nc3cc(Cl)ccc3c(NNc3ccccc3)c2C1 [Example 9, 7-Chloro-1,2,3,4-tetrahydro-2-octyl-10-(2-phenyl-hydrazino)benzo[6][1,6]naphthyridine] |  | inhibition at 1 µM [1]: 22 ± 6%
COCCNc1c2c(nc3cc(Cl)ccc13)CCN(C)C2 [Example 12, 7-Chloro-1,2,3,4-tetrahydro-N-(2-methoxyethyl)-2-methylbenzo[b]-[1,6]naphthyridin-10-amine, three quarter hydrate] | 62 ± 28% | 
CN1CCc2nc3cc(Cl)ccc3c(NNc3ccccc3)c2C1 [Example 7, 1-(7-Chloro-1,2,3,4-tetrahydro-2-methylbenzo[b][1,6]-naphthyridin-10-yl)-2-phenylhydrazine] | 78 ± 13% | inhibition at 1 µM [1]: 35 ± 22%; % Change (carrageenan paw edema; 10 mg/kg perorally): 41%; % Change (carrageenan paw edema; 30 mg/kg perorally): 64%; % Change (carrageenan paw edema; 90 mg/kg perorally): 68%; % Change (carrageenan paw edema; 100 mg/kg perorally): 59%
C=CCCCN1CCc2nc3cc(Cl)ccc3c(NNc3ccccc3)c2C1 [Example 11, 7-Chloro-1,2,3,4-tetrahydro-2-(4-pentenyl)-10-(2-phenyl-hydrazino)benzo[b][1,6]naphthyridine, sesquihydrate] | 11 ± 26% | 
CN1CCc2nc3ccc(Cl)cc3c(NN)c2C1 [Example 20, (8-Chloro-1,2,3,4-tetrahydro-2-methylbenzo[b][1,6]naphthyridin-10-yl)hydrazine] |  | inhibition at 5 µM [1]: 18%
CCCCCCCCN1CCc2nc3cc(Cl)ccc3c(Cl)c2C1 [Example 2, 7,10-dichloro-1,2,3,4-tetrahydro-2-octylbenzo[b][1,6]naphthyridine] | 51% | 
CC(=O)Oc1ccccc1C(=O)O [Aspirin, reference compound] |  | ED50 (carrageenan paw edema): 145 mg/kg
COc1ccc2c(c1)c(CC(=O)O)c(C)n2C(=O)c1ccc(Cl)cc1 [Indomethacin, reference compound] |  | ED50 (carrageenan paw edema): 3.7 mg/kg
CN1CCc2nc3ccc(Cl)cc3c(Oc3ccccc3)c2C1 [Example 18, 8-Chloro-1,2,3,4-tetrahydro-2-methyl-10-phenoxybenzo[b][1,6]naphthyridine] | 9 ± 28% | 
CN1CCc2nc3cc(Cl)ccc3c(Cl)c2C1 [Example 5] | 26 ± 23% | 
CN1CCc2nc3cc(Cl)ccc3c(Sc3ccccc3)c2C1 [Example 17, 7-Chloro-1,2,3,4-tetrahydro-2-methyl-10-thiophenylbenzo[b][1,6]naphthyridine] | 44 ± 21% | 
CN1CCc2nc3ccc(Cl)cc3c(Cl)c2C1 [Example 6, 8,10-Dichloro-1,2,3,4-tetrahydro-2-methylbenzo[b][1,6]naphthyridine] | 13 ± 6% | 
CN1CCc2nc3ccc(Cl)cc3c(Nc3ccccc3)c2C1 [Example 19, 10-Anilino-8-chloro-1,2,3,4-tetrahydro-2-methylbenzo[b][1,6]naphthyridine] | 23 ± 25% | 
CCCCN1CCc2nc3cc(Cl)ccc3c(Cl)c2C1 [Example 1, 2-Butyl-7,10-dichloro-1,2,3,4-tetrahydrobenzo[b][1,6]naphthyridine] | 3% | 
CN1CCN(c2c3c(nc4cc(Cl)ccc24)CCN(C)C3)CC1 [Example 16, 7-Chloro-1,2,3,4-tetrahydro-2-methyl-10-(4-methyl-1-piperazinyl)benzo[b][1,6]naphthyridine] |  | inhibition at 5 µM [1]: 14 ± 3%
CCCCN1CCc2nc3cc(Cl)ccc3c(NNc3ccccc3)c2C1 [Example 8, 2-Butyl-7-chloro-1,2,3,4-tetrahydro-10-(2-phenyl-hydrazino)benzo[b][1,6]naphthyridine] |  | inhibition at 1 µM [1]: 22 ± 6%
CN1CCc2nc3cc(Cl)ccc3c(NCCN3CCOCC3)c2C1 [Example 13, 7-Chloro-1,2,3,4-tetrahydro-2-methyl-N-(2-(4-morpholinyl)-ethyl)benzo[b][1,6]naphthyridin-10-amine] | 4 ± 13% | 
CN1CCc2nc3ccc(Cl)cc3c(SCCCN)c2C1 [Example 21, 10-(3-Aminopropylthio)-8-chloro-1,2,3,4-tetrahydro-2-methylbenzo[b][1,6]naphthyridine] | 42 ± 26% | 
CN1CCc2nc3cc(Cl)ccc3c(Oc3ccccc3)c2C1 [Example 15, 7-Chloro-1,2,3,4-tetrahydro-2-methyl-10-phenoxybenzo[b][1,6]naphthyridine] | 22 ± 28% | 
C=CCN1CCc2nc3cc(Cl)ccc3c(NNc3ccccc3)c2C1 [Example 10, 7-Chloro-1,2,3,4-tetrahydro-10-(2-phenylhydrazino)-2-(2-propenyl)benzo[b][1,6]naphthyridine, dihydrate] | 62 ± 2% | 
CN1CCc2nc3cc(Cl)ccc3c(Nc3ccccc3)c2C1 [Example 14, 10-Anilino-7-chloro-1,2,3,4-tetrahydro-2-methylbenzo[b][1,6]naphthyridine] | 14 ± 4% | 
C=CCCCN1CCc2nc3cc(Cl)ccc3c(Cl)c2C1 [Example 4, 7,10-Dichloro-1,2,3,4-tetrahydro-2-(4-pentenyl)benzo[b][1,6]naphthyridine] | 12 ± 5% | 
